The results in this text go back to ChEMBL document CHEMBL3396995, “Synthesis and biological evaluation of novel pyrrolidine acid analogs as potent dual PPARα/γ agonists” (Bioorg Med Chem Lett, 2015).

Broadly, the EC50 is the midpoint of the concentration-response curve. As usually defined, the IC50 is the point on the concentration scale where inhibition reaches its midpoint. Low values mean greater potency, high ones weaker potency. Broadly, the half-life is the time needed for the level to fall by half in the phase considered. Usually inhibition in vivo stands for the relative decrease from the control value, in per cent. The bioavailability is the share of a dose that reaches the circulation, judged against a reference dose that is usually intravenous.

For data set [1], the target named is T1, Peroxisome proliferator-activated receptor gamma (Homo sapiens, UniProt P37231).
T1 sequence (P37231 whole entry): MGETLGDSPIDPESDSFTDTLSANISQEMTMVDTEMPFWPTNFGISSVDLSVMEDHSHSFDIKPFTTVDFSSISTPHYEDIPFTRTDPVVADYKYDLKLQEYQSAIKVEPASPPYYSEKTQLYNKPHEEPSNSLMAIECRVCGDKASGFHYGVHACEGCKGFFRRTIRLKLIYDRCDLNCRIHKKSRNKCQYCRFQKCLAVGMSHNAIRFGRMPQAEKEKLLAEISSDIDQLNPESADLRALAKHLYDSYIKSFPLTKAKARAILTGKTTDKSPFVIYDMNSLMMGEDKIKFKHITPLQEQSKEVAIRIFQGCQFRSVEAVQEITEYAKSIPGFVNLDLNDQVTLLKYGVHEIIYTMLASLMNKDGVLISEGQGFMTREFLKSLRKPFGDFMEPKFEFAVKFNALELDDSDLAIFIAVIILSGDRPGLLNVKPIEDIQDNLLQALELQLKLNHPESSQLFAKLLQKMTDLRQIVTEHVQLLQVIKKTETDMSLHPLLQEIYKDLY
Kind of data set: Agonist activity at GAL4 tagged human PPARgamma ligand binding domain expressed in HEK293 cells by luciferase reporter gene assay. In kind it is cell-based. On the technique in general: A reporter such as luciferase makes a cellular process visible.

Data set [2] addresses T2, Peroxisome proliferator-activated receptor alpha (Homo sapiens, UniProt Q07869).
T2 sequence (Q07869 whole entry): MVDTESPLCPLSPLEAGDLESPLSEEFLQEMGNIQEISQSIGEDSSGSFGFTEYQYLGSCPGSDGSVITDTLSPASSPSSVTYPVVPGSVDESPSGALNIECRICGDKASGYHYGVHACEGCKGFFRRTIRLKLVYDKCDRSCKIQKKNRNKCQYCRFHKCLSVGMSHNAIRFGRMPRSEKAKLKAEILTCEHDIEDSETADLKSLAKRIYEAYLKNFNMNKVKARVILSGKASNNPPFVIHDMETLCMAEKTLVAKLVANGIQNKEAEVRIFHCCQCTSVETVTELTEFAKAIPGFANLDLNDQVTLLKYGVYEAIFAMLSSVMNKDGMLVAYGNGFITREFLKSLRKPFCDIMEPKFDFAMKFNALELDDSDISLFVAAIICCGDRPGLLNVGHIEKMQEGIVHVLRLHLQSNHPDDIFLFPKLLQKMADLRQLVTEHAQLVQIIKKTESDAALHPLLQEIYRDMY
Briefly: Agonist activity at GAL4 tagged human PPARalpha ligand binding domain expressed in HEK293 cells by luciferase reporter gene assay. In kind it is cell-based. As to conditions: read-out: EC50.

Data set [3] addresses T2, Peroxisome proliferator-activated receptor alpha. Briefly: Binding affinity to PPARalpha (unknown origin) using fluorescein-tagged dual PPARalpha/gamma activator by homogeneous fluorescence polarization binding assay. In general terms: In fluorescence polarisation assays a small probe gives low polarisation when free and higher when bound to something large.
The target in data set [4] is T1, Peroxisome proliferator-activated receptor gamma.
Description: (§1) Binding affinity to PPARgamma (unknown origin) using fluorescein-tagged dual PPARalpha/gamma activator by homogeneous fluorescence polarization binding assay
The next data set deals with Cytochrome P450 2C9 (Homo sapiens, UniProt P11712). Briefly: Inhibition of CYP2C9 (unknown origin). In kind it is ADME.
Cytochrome P450 2C9, sequence (P11712 whole entry): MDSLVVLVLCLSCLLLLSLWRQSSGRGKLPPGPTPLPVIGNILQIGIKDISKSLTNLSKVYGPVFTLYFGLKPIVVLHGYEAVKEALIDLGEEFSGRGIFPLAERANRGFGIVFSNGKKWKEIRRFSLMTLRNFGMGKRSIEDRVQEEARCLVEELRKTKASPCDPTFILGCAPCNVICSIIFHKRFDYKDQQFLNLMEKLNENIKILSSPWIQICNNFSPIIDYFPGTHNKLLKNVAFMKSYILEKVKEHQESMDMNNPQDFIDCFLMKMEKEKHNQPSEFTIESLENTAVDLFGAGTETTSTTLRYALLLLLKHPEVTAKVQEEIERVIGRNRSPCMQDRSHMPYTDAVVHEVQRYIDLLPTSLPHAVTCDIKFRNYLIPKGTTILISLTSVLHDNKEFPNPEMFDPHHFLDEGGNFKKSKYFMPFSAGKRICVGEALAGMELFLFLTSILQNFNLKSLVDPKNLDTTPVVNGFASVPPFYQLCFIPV
For the next data set, the system named is Rattus norvegicus. Kind of data set: Volume of distribution at steady state in rat at 10 mg/kg, po. In kind it is ADME, organism-based. As to conditions: in vivo. Further details: dose 10 mg/kg, route oral.
Data set [5] can be described thus: Half life in rat at 10 mg/kg, po. In kind it is ADME, organism-based. Further details: dose 10 mg/kg, route oral. The conditions noted are these: in vivo.
Data set [6] concerns Mus musculus. Kind of data set: Antidiabetic activity in db/db mouse assessed as reduction in fasting glucose level at 10 mg/kg, po dosed once daily for 14 days. In kind it is functional. As to conditions: 336 h.
Data set [7] deals with Mus musculus. Briefly: Lipid lowering activity in db/db mouse assessed as reduction in fasting triglyceride level at 10 mg/kg, po dosed once daily for 14 days. As to conditions: 336 h. In kind it is functional.
A short description of data set [8]: Oral bioavailability in rat at 10 mg/kg. In kind it is ADME, organism-based. The conditions noted are these: in vivo.
The target in a further data set is Cytochrome P450 2C19 (Homo sapiens, UniProt P33261). Kind of data set: Inhibition of CYP2C19 (unknown origin). In kind it is ADME.
Cytochrome P450 2C19, sequence (P33261 whole entry): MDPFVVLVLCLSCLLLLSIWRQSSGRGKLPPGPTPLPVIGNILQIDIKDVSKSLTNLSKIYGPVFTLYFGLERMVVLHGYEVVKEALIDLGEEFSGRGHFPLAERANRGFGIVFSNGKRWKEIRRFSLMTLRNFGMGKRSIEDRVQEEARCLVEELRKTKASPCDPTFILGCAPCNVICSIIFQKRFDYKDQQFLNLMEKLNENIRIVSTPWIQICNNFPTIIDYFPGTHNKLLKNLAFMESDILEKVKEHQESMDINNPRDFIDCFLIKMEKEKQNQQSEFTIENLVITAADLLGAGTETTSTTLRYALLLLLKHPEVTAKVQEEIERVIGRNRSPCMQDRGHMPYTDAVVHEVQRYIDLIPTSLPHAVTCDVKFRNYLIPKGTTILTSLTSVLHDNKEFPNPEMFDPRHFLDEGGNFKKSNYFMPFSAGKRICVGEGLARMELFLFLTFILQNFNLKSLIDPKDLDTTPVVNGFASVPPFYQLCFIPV
Data set [9] concerns the target T1, Peroxisome proliferator-activated receptor gamma. This is another data set of the same source.
Description: as §1

In the case of `Cc1oc(-c2ccccc2)nc1CCOc1ccc(C[C@@H]2CN(C(=O)Oc3ccccc3)C[C@@H]2C(=O)O)cc1` (racemic), the values for the EC50 in [1] and in data set [2] were 0.64 µM and 0.001 µM, respectively. For the same compound, the IC50 in [3] is 0.61 µM; in data set [4], 0.08 µM.
As to `Cc1oc(-c2ccccc2)nc1CCOc1ccc(C[C@@H]2CN(c3nccc(C(F)(F)F)n3)C[C@@H]2C(=O)O)cc1`, the IC50 against Cytochrome P450 2C9 was found to be 3.2 µM; in data set [3] it was 0.96 µM; against Cytochrome P450 2C19 it was 8.8 µM; in [9], 0.02 µM. For the same compound, the Vdss with Rattus norvegicus worked out at 0.47 L/kg. In addition, the EC50 came out at 0.03 µM in data set [1] and 0.09 µM in data set [2]. The compound further showed a half-life in [5] of 1.54 h. Further, the inhibition in vivo at 10 mg/kg with Mus musculus [6] is 37%; in the data set on Mus musculus [7], 48%. This compound also showed a bioavailability in data set [8] of 65%.
Regarding `Cc1oc(-c2ccccc2)nc1CCOc1ccc(C[C@H]2CN(c3nccc(C(F)(F)F)n3)C[C@@H]2C(=O)O)cc1`, the EC50 in data set [1] was above 30 µM; in data set [2], 1 µM. Further, the figures for the half-inhibitory concentration (IC50) in data set [3] and in data set [9] were 1.12 µM and 3.57 µM, respectively.
The corresponding values for `Cc1oc(-c2ccccc2)nc1CCOc1cccc([C@H]2CN(C(=O)Oc3ccccc3)C[C@@H]2CC(=O)O)c1` (racemic) are 14.6 µM, 11.7 µM, above 10 µM and 1.82 µM.
For `Cc1oc(-c2ccccc2)nc1CCOc1ccc(C[C@@H]2CN(c3nccc(C(F)(F)F)n3)C[C@H]2C(=O)O)cc1` the same measures were above 30 µM, 4.41 µM, above 50 µM and 1.16 µM.
For `Cc1oc(-c2ccccc2)nc1CCOc1cccc(C[C@@H]2CN(C(=O)Oc3ccccc3)C[C@@H]2C(=O)O)c1` (racemic) the same measures were 1.25 µM, 0.01 µM, 0.22 µM and 1.33 µM.
Turning to `CCOC(=O)N1C[C@H](C(=O)O)[C@H](c2cccc(OCCc3nc(-c4ccccc4)oc3C)c2)C1` (racemic), the EC50 in data set [1] amounted to 24 µM; in [2], 20 µM. The IC50 in data set [3] and in [9] was above 10 µM each time.
Consider `Cc1oc(-c2ccccc2)nc1CCOc1cccc(CC[C@H]2CN(C(=O)Oc3ccccc3)C[C@@H]2C(=O)O)c1` (racemic), for which the EC50 in data set [1] was determined as 1.17 µM; in data set [2] it was 2.6 µM. The figures for the IC50 in data set [3] and in [9] were above 10 µM and 0.52 µM, respectively.
The corresponding values for `Cc1oc(-c2ccccc2)nc1CCOc1ccc(C[C@@H]2CN(c3ncccn3)C[C@@H]2C(=O)O)cc1` (racemic) are 1.06 µM, 2.91 µM, above 10 µM and 2.04 µM.
`CCOC(=O)N1C[C@H](C(=O)O)[C@@H](c2ccc(OCCc3nc(-c4ccccc4)oc3C)cc2)C1` (racemic): the EC50 in [1] is above 32 µM; in data set [2], above 15 µM. For the same compound, the IC50 in data set [3] and in data set [9] was above 10 µM each time.
Regarding `Cc1oc(-c2ccccc2)nc1CCOc1ccc(C[C@@H]2CN(c3nc(C(F)(F)F)co3)C[C@@H]2C(=O)O)cc1` (racemic), the figures for the EC50 in data set [1] and in [2] were above 30 µM and 1.47 µM, respectively. Also, the IC50 in data set [3] came to 5.01 µM; in [9], 0.05 µM.
For `Cc1oc(-c2ccccc2)nc1CCOc1cccc(C[C@H]2CN(C(=O)Oc3ccccc3)C[C@H]2C(=O)O)c1` the same measures were 13.3 µM, 0.95 µM, 0.66 µM and 0.59 µM.
In the case of `Cc1oc(-c2ccccc2)nc1CCOc1ccc(C[C@@H]2CN(C(=O)Oc3ccccc3)C[C@@H]2C(=O)O)cc1`, the EC50 is 0.03 µM in data set [1] and 0.005 µM in [2]. For the same compound, the inhibition in vivo at 10 mg/kg in the data set on Mus musculus [6] was 30%; in the data set on Mus musculus [7], 12%. In addition, the results for the IC50 in data set [3] and in [9] were 0.18 µM and 0.08 µM, respectively.
In the case of `Cc1oc(-c2ccccc2)nc1CCOc1ccc([C@@H]2CN(C(=O)Oc3ccccc3)C[C@@H]2CC(=O)O)cc1` (racemic), the EC50 in [1] is 4.18 µM; in [2], above 15 µM. Also, the IC50 in [3] is above 15 µM; in data set [9], 8.31 µM.
As to `Cc1oc(-c2ccccc2)nc1CCOc1cccc(C[C@H]2CN(C(=O)Oc3ccccc3)C[C@@H]2CC(=O)O)c1` (racemic), the EC50 was above 10 µM in [1] and 0.85 µM in data set [2]. Besides, the IC50 in data set [3] stood at 3.09 µM; in [9] it was 0.21 µM.
